Data from the supplement of paper PMC11061612.

What was measured:
Capivasertib = compound: C1CN(CCC1(C(=O)N[C@@H](CCO)C2=CC=C(C=C2)Cl)N)C3=NC=NC4=C3C=CN4 [Capivasertib]; conditions: max 10 µM
Procedure, shortened: (§1)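 Cancer cell lines were seeded into 1536-well plates in 7.5 μl medium (DMEM/F12 or RPMI, 10% FBS), held 24 hours at 37°C and 5% CO2, and dosed for 72 hours with final DMSO typically 0.2%. Luminescence from CellTiter-Glo 2.0, scaled between blank-well and DMSO-well means, served as viability. The single-agent IC50 was obtained from dose-response fits with a non-linear mixed effects model, each fit being a two-parameter logistic curve.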

AZD1775 = compound: C=CCn1c(=O)c2cnc(Nc3ccc(N4CCN(C)CC4)cc3)nc2n1-c1cccc(C(C)(C)O)n1 [AZD1775]; conditions: max 3 µM
Procedure, shortened: as §1

Trametinib = compound: CC(=O)Nc1cccc(-n2c(=O)n(C3CC3)c(=O)c3c(Nc4ccc(I)cc4F)n(C)c(=O)c(C)c32)c1 [Trametinib]; conditions: max 1 µM
Procedure, shortened: as §1

Palbociclib = compound: CC(=O)c1c(C)c2cnc(Nc3ccc(N4CCNCC4)cn3)nc2n(C2CCCC2)c1=O [Palbociclib]; conditions: max 10 µM
Procedure, shortened: as §1

AZD1390 = compound: CC(C)n1c(=O)n(C)c2cnc3cc(F)c(-c4ccc(OCCCN5CCCCC5)nc4)cc3c21 [AZD1390]; conditions: max 0.3 µM
Procedure, shortened: as §1

Venetoclax = compound: CC1(C)CCC(CN2CCN(c3ccc(C(=O)NS(=O)(=O)c4ccc(NCC5CCOCC5)c([N+](=O)[O-])c4)c(Oc4cnc5[nH]ccc5c4)c3)CC2)=C(c2ccc(Cl)cc2)C1 [Venetoclax]; conditions: max 1 µM
Procedure, shortened: as §1

Dasatinib = compound: CC1=C(C(=CC=C1)Cl)NC(=O)C2=CN=C(S2)NC3=CC(=NC(=N3)C)N4CCN(CC4)CCO [Dasatinib]; conditions: max 2 µM
Procedure, shortened: as §1

SG3199 = compound: CC1=CN2[C@@H](C1)C=NC3=CC(=C(C=C3C2=O)OC)OCCCCCOC4=C(C=C5C(=C4)N=C[C@@H]6CC(=CN6C5=O)C)OC [SG3199]; conditions: max 0.001 µM
Procedure, shortened: as §1

AZD2811 = compound: CCN(CCO)CCCOc1ccc2c(Nc3cc(CC(=O)Nc4cccc(F)c4)[nH]n3)ncnc2c1 [AZD2811]; conditions: max 1 µM
Procedure, shortened: as §1

SN-38 = compound: CCc1c2c(nc3ccc(O)cc13)-c1cc3c(c(=O)n1C2)COC(=O)[C@]3(O)CC [SN-38]; conditions: max 0.3 µM
Procedure, shortened: as §1

AZD0156 = compound: CN(C)CCCOc1ccc(-c2ccc3ncc4c(c3c2)n(C2CCOCC2)c(=O)n4C)cn1 [AZD0156]; conditions: max 3 µM
Procedure, shortened: as §1

AZD4320 = compound: CN(CC[C@H](CSC1=CC=CC=C1)NC2=C(C=C(C=C2)S(=O)(=O)NC(=O)C3=CC=C(C=C3)N4CCC(CC4)[C@H](C5=CC=CC=C5C6=CC=C(C=C6)Cl)O)S(=O)(=O)C(F)(F)F)CCO [AZD4320]; conditions: max 1 µM
Procedure, shortened: as §1

Alisertib = compound: COc1cc(Nc2ncc3c(n2)-c2ccc(Cl)cc2C(c2c(F)cccc2OC)=NC3)ccc1C(=O)O [Alisertib]; conditions: max 10 µM
Procedure, shortened: as §1

Gefitinib = compound: COc1cc2ncnc(Nc3ccc(F)c(Cl)c3)c2cc1OCCCN1CCOCC1 [Gefitinib]; conditions: max 10 µM
Procedure, shortened: as §1

Prexasertib = compound: COc1cccc(OCCCN)c1-c1cc(Nc2cnc(C#N)cn2)n[nH]1 [Prexasertib]; conditions: max 1 µM
Procedure, shortened: as §1

Doxorubicin = compound: COc1cccc2c1C(=O)c1c(O)c3c(c(O)c1C2=O)C[C@@](O)(C(=O)CO)C[C@@H]3O[C@H]1C[C@H](N)[C@H](O)[C@H](C)O1 [Doxorubicin]; conditions: max 1 µM
Procedure, shortened: as §1

AZD5153 = compound: COc1nnc2ccc(N3CCC(c4ccc(OCCN5CCN(C)C(=O)[C@H]5C)cc4)CC3)nn12 [AZD5153]; conditions: max 1 µM
Procedure, shortened: as §1

Lapatinib = compound: CS(=O)(=O)CCNCc1ccc(-c2ccc3ncnc(Nc4ccc(OCc5cccc(F)c5)c(Cl)c4)c3c2)o1 [Lapatinib]; conditions: max 10 µM
Procedure, shortened: as §1

AZD8186 = compound: C[C@@H](Nc1cc(F)cc(F)c1)c1cc(C(=O)N(C)C)cc2c(=O)cc(N3CCOCC3)oc12 [AZD8186]; conditions: max 3 µM
Procedure, shortened: as §1

Crizotinib = compound: C[C@@H](Oc1cc(-c2cnn(C3CCNCC3)c2)cnc1N)c1c(Cl)ccc(F)c1Cl [Crizotinib]; conditions: max 10 µM
Procedure, shortened: as §1

Savolitinib = compound: C[C@@H](c1ccc2nccn2c1)n1nnc2ncc(-c3cnn(C)c3)nc21 [Savolitinib]; conditions: max 1 µM
Procedure, shortened: as §1

AZD6738 = compound: C[C@@H]1COCCN1C2=NC(=NC(=C2)C3(CC3)[S@](=N)(=O)C)C4=C5C=CNC5=NC=C4 [AZD6738]; conditions: max 10 µM
Procedure, shortened: as §1

AZD5991 = compound: Cc1c2c(nn1C)CSCc1cc(n(C)n1)CSc1cc(c3ccccc3c1)OCCCc1c(C(=O)O)n(C)c3c-2c(Cl)ccc13 [AZD5991]; conditions: max 1 µM
Procedure, shortened: as §1

AZD7648 = compound: Cc1cc2ncnn2cc1Nc1ncc2c(n1)n(C1CCOCC1)c(=O)n2C [AZD7648]; conditions: max 10 µM
Procedure, shortened: as §1

Taselisib = compound: Cc1nc(-c2cn3c(n2)-c2ccc(-c4cnn(C(C)(C)C(N)=O)c4)cc2OCC3)n(C(C)C)n1 [Taselisib]; conditions: max 10 µM
Procedure, shortened: as §1

Selumetinib = compound: Cn1cnc2c(F)c(Nc3ccc(Br)cc3Cl)c(C(=O)NOCCO)cc21 [Selumetinib]; conditions: max 10 µM
Procedure, shortened: as §1

MK-2206 = compound: NC1(c2ccc(-c3nc4ccn5c(=O)[nH]nc5c4cc3-c3ccccc3)cc2)CCC1 [MK-2206]; conditions: max 10 µM
Procedure, shortened: as §1

Olaparib = compound: O=C(c1cc(Cc2n[nH]c(=O)c3ccccc23)ccc1F)N1CCN(C(=O)C2CC2)CC1 [Olaparib]
Procedure, shortened: as §1

Cell Line | IC50, cell viability 72 h (Capivasertib) | IC50, cell viability 72 h (AZD1775) | IC50, cell viability 72 h (Trametinib) | IC50, cell viability 72 h (Palbociclib) | IC50, cell viability 72 h (AZD1390) | IC50, cell viability 72 h (Venetoclax) | IC50, cell viability 72 h (Dasatinib) | IC50, cell viability 72 h (SG3199) | IC50, cell viability 72 h (AZD2811) | IC50, cell viability 72 h (SN-38) | IC50, cell viability 72 h (AZD0156) | IC50, cell viability 72 h (AZD4320) | IC50, cell viability 72 h (Alisertib) | IC50, cell viability 72 h (Gefitinib) | IC50, cell viability 72 h (Prexasertib) | IC50, cell viability 72 h (Doxorubicin) | IC50, cell viability 72 h (AZD5153) | IC50, cell viability 72 h (Lapatinib) | IC50, cell viability 72 h (AZD8186) | IC50, cell viability 72 h (Crizotinib) | IC50, cell viability 72 h (Savolitinib) | IC50, cell viability 72 h (AZD6738) | IC50, cell viability 72 h (AZD5991) | IC50, cell viability 72 h (AZD7648) | IC50, cell viability 72 h (Taselisib) | IC50, cell viability 72 h (Selumetinib) | IC50, cell viability 72 h (MK-2206) | IC50, cell viability 72 h (Olaparib; max 10 µM) | IC50, cell viability 72 h (Olaparib; max 3 µM)
NCI-H446 (Small Cell Lung Carcinoma) | 2660 nM | 400 nM | > 1000 nM | > 10000 nM | > 300 nM | > 1000 nM | > 2000 nM | > 1 nM | 42.8 nM | 62.6 nM | > 3000 nM | 557 nM | 54.8 nM | > 10000 nM | 19.3 nM | 499 nM | 209 nM | 6400 nM | > 3000 nM | 1720 nM | > 1000 nM | 4150 nM | > 1000 nM | > 10000 nM | 2860 nM | > 10000 nM | 4500 nM | > 10000 nM | 
OAW-42 (Ovarian Carcinoma) | > 10000 nM | > 3000 nM | > 1000 nM | > 10000 nM | > 300 nM | > 1000 nM | 909 nM |  | > 1000 nM | 29.5 nM | > 3000 nM | > 1000 nM | 4550 nM | > 10000 nM | 463 nM |  | > 1000 nM | > 10000 nM | > 3000 nM | > 10000 nM | > 1000 nM | > 10000 nM | > 1000 nM | > 10000 nM | 441 nM | > 10000 nM | 3000 nM |  | > 3000 nM
RERF-GC-1B (Gastric Carcinoma) | > 10000 nM | 401 nM | 462 nM | > 10000 nM | > 300 nM | > 1000 nM | 28.2 nM | > 1 nM | > 1000 nM | 60.9 nM | > 3000 nM | > 1000 nM | 3280 nM | > 10000 nM | 717 nM | 525 nM | 587 nM | > 10000 nM | > 3000 nM | 7140 nM | > 1000 nM | > 10000 nM | 159 nM | > 10000 nM | 1650 nM | > 10000 nM | > 10000 nM | > 10000 nM | 
RERF-LC-Sq1 (Squamous Cell Lung Carcinoma) | 1600 nM | 681 nM | 179 nM | 6600 nM | > 300 nM | > 1000 nM | > 2000 nM | > 1 nM | > 1000 nM | 167 nM | > 3000 nM | > 1000 nM | > 10000 nM | 3120 nM | 36.6 nM | 1000 nM | 768 nM | 2640 nM | > 3000 nM | > 10000 nM | > 1000 nM | 4110 nM | > 1000 nM | > 10000 nM | 427 nM | > 10000 nM |  | > 10000 nM | 
